Test [1] addresses T1, human enzyme NAMPT (full length) (Homo sapiens, UniProt P43490).
T1 construct: human enzyme NAMPT (full length)
The test can be described thus: NMN fluorescence biochemical assay (stimulation of NMN synthesis by NAMPT). To be noted: for pEC50: concentration giving half-maximal activation, read-out: Enzymatic EC50; for Enzymatic Emax: fold change of maximal activation compared to DMSO. The method, boiled down: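 Full-length human NAMPT (100 nM) was preincubated 15 min at 37 °C with compound in 50 mM Tris-HCl pH 7.5, 10 mM MgCl2, 2 mM DTT, then reacted 1 h at 37 °C with 50 μM NAM, 100 μM PRPP, 4 mM ATP (stated solution concentrations). NMN was derivatised with acetophenone/KOH then formic acid and read at Ex/Em 382/445 nm; EC50 and Emax (fold over DMSO) reported.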

Test [2] concerns endogenous NAMPT in U2OS cells. The test can be described thus: Cellular NAD+ modulation assay (NAD/NADH-Glo, U2OS cells). The class given is cell-based. The settings on record: Homo sapiens; for maximal fold induction: read-out: Cellular Emax. On the procedure:
Certain compounds described herein were also assayed for their ability to stimulate the endogenous NAMPT in a native cellular environment in a cellular NAD^+ modulation assay. U2OS cells were grown in McCoy's 5A medium with 10% fetal bovine serum, in a humidified incubator with an atmosphere of 95% air and 5% CO2 at 37° C. The assays were initiated by plating 30 μL of U2OS cells in a culture medium with 10% fetal bovine serum, at a density of 3000 cells per well in a Corning® 384-well White/Clear Bottom Polystyrene Microplate. The plates were incubated in 37T incubators for a period of 16 hours. Test compounds with a series of concentrations in DMSO were added to the plates in a volume of 150 nL using Echo Liquid handlers. The plates are then incubated for 24 hours. The medium was removed from the wells, then 10 μL PBS was added to each well. To each well of cells in 10 μL of PBS, 10 μL of base solution with 1% DTAB was added. The plate was briefly mixed on a plate shaker to ensure homogeneity and cell lysis (5 mins). 10p L of 0.4N HCl was added per well. The plate was coved, and all samples were incubated for 15 minutes at 60° C. Then the plate was equilibrated for 10 minutes at room temperature. 10 μL of 0.5M Trizma® base was added to each well of acid-treated cells to neutralize the acid. Finally, 30 μL of NAD/NADH-Glo™ Detection Reagent was added. The plate was gently shaken to mix the samples. The plate was incubated for 40 minutes at room temperature. Luminescence was recorded using a luminometer. The potency measurements for the test compounds were quantified and represented as EC50 (concentration of a compound that gives half-maximal activation) and Emax (fold change of a compound's maximal activation compared to DMSO).

Where [3] appears, read: NMN synthesis by purified human NAMPT (100 nM).
Where [4] appears, read: 24 hours incubation with compound.
[5] abbreviates: NMN fluorescence assay, purified human NAMPT 100 nM.
Where [6] appears, read: 24 hours incubation, cellular NAD+.

The structures appear in SMILES notation. pEC50: −log10 of the molar value. Like-named read-outs stand apart in the source and are kept apart here. Where only a bound is given, the exact number is not on record here.

T1 sequence (P43490 whole entry): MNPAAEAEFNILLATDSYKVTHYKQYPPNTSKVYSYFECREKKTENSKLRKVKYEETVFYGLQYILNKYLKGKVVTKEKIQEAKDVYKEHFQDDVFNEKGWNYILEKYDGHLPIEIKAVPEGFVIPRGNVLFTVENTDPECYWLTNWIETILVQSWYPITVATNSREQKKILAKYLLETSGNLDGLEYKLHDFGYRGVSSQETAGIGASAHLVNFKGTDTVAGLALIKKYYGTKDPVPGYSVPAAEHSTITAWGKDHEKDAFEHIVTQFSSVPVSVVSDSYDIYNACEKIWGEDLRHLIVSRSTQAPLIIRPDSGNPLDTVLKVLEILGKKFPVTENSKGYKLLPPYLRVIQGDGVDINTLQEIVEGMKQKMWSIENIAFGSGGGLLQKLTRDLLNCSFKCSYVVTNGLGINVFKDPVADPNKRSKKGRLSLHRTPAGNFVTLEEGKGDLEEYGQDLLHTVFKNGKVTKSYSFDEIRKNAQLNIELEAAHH

Take `COc1ccc2c(c1)CN(Cc1ccc(O)cc1)C2=O` [Compound 35, 2-(4-hydroxybenzyl)-5-methoxyisoindolin-1-one]: the negative-log EC50 (pEC50) in test [1] (setting [3]) was 5.30 to 6.30. Also, the “Enzymatic Emax” value in test [1] is recorded as “A (A>3)”. In addition, in test [2] (setting [4]), the negative-log EC50 (pEC50) was 5.30 to 6.30 and the maximal fold induction is 1.2 to 1.5.
For `COc1nn(C)c(CC2c3ccccc3C(=O)N2Cc2ccc3[nH]nnc3c2)c1Cl` (stereo not drawn) [Compound 316, 2-((1H-benzo[d][1,2,3]triazol-5-yl)methyl)-3-((4-chloro-3-methoxy-1-methyl-1H-pyrazol-5-yl)methyl)isoindolin-1-one], in test [1] (setting [3]), the negative-log EC50 (pEC50) was above 6.30. In test [1], the “Enzymatic Emax” value is listed as “B (3≥B>2)”. Further, in test [2] (setting [4]), the pEC50 is above 6.30 and the maximal fold induction was 1.2 to 1.5.
As to `Cn1ncc(Cl)c1CC1c2c(F)cccc2C(=O)N1CC1CC2(CNC(=O)O2)C1` (stereo not drawn) [Compound 511, 2-((3-((4-chloro-1-methyl-1H-pyrazol-5-yl)methyl)-4-fluoro-1-oxoisoindolin-2-yl)methyl)-5-oxa-7-azaspiro[3.4]octan-6-one], the results for the negative-log EC50 (pEC50) in test [1] (setting [5]) and in test [2] (setting [6]) were 5.30 to 6.30 and above 6.30, respectively. In test [1], the “Enzymatic Emax” value was “A (A>3)”. Further, in test [2] (setting [6]), the maximal fold induction is 1.2 to 1.5.
In the case of `Cn1ncc(Cl)c1CC1c2ccc(F)cc2C(=O)N1CC1CC2(CNC(=O)O2)C1` (stereo not drawn) [Compound 310, 2-((1-((4-chloro-1-methyl-1H-pyrazol-5-yl)methyl)-5-fluoro-3-oxoisoindolin-2-yl)methyl)-5-oxa-7-azaspiro[3.4]octan-6-one], the pEC50 in test [1] (setting [3]) was 5.30 to 6.30. Further, the “Enzymatic Emax” value in test [1] was “B (3≥B>2)”. For the same compound, in test [2] (setting [4]), the pEC50 is above 6.30 and the maximal fold induction is above 1.5.
Consider `CC(C)(O)Cn1cc(Cl)c(CC2c3ccccc3C(=O)N2Cc2ccc3[nH]nnc3c2)n1` (stereo not drawn) [Compound 411, 2-((1H-benzo[d][1,2,3]triazol-5-yl)methyl)-3-((4-chloro-1-(2-hydroxy-2-methylpropyl)-1H-pyrazol-3-yl)methyl)isoindolin-1-one], for which the pEC50 in test [1] (setting [5]) is above 6.30. Moreover, the “Enzymatic Emax” value in test [1] is “B (3≥B>2)”. Also, in test [2] (setting [6]), the negative logarithm of the EC50 (pEC50) is above 6.30 and the maximal fold induction was above 1.5.
Regarding `Cn1ncc(Cl)c1CC1c2ccccc2C(=O)N1Cc1cn[nH]c1` (stereo not drawn) [Compound 629, 2-((1H-pyrazol-4-yl)methyl)-3-((4-chloro-1-methyl-1H-pyrazol-5-yl)methyl)isoindolin-1-one], the negative-log EC50 (pEC50) in test [1] (setting [5]) and in test [2] (setting [6]) was above 6.30 in each case. For the same compound, in test [1], the “Enzymatic Emax” value is “B (3≥B>2)”. The maximal fold induction in test [2] (setting [6]) fell in the range of 1.2 to 1.5.
For `O=C1c2ccccc2C(Cc2ccccc2C(F)(F)F)N1Cc1ccc2[nH]c(=O)oc2c1` (stereo not drawn) [Compound 134, 6-((1-oxo-3-(2-(trifluoromethyl)benzyl)isoindolin-2-yl)methyl)benzo[d]oxazol-2(3H)-one], the negative logarithm of the EC50 (pEC50) in test [1] (setting [3]) is above 6.30. In test [1], the “Enzymatic Emax” value is “A (A>3)”. Besides, in test [2] (setting [4]), the pEC50 is 5.30 to 6.30 and the maximal fold induction is above 1.5.
Consider `COc1ccccc1CC1c2ccccc2C(=O)N1Cc1ccc2[nH]c(=O)oc2c1` (stereo not drawn) [Compound 142, 6-((1-(2-methoxybenzyl)-3-oxoisoindolin-2-yl)methyl)benzo[d]oxazol-2(3H)-one], for which the pEC50 in test [1] (setting [3]) is above 6.30; in test [2] (setting [4]), 5.30 to 6.30. The “Enzymatic Emax” value in test [1] is recorded as “B (3≥B>2)”. Moreover, the maximal fold induction in test [2] (setting [4]) is above 1.5.
Take `COc1ncc(CN2C(=O)c3ccccc3C2Cc2c(Cl)cnn2C)s1` (stereo not drawn) [Compound 591, 3-((4-chloro-1-methyl-1H-pyrazol-5-yl)methyl)-2-((2-methoxythiazol-5-yl)methyl)isoindolin-1-one]: the pEC50 in test [1] (setting [5]) was at most 5.30; in test [2] (setting [6]), 5.30 to 6.30. Besides, in test [1], the “Enzymatic Emax” value was “B (3≥B>2)”. Further, the maximal fold induction in test [2] (setting [6]) is 1.2 to 1.5.
With `Cc1ccnc(C#N)c1CC1c2ccccc2C(=O)N1CC1CC2(CNC(=O)O2)C1` (stereo not drawn) [Compound 308, 4-methyl-3-((3-oxo-2-((6-oxo-5-oxa-7-azaspiro[3.4]octan-2-yl)methyl)isoindolin-1-yl)methyl)picolinonitrile], the negative-log EC50 (pEC50) in test [1] (setting [3]) is above 6.30. In addition, the “Enzymatic Emax” value in test [1] is recorded as “B (3≥B>2)”. In addition, in test [2] (setting [4]), the negative logarithm of the EC50 (pEC50) is above 6.30 and the maximal fold induction was above 1.5.
`CC1c2ccccc2C(=O)N1Cc1ccc(O)cc1` (stereo not drawn) [Compound 31, 2-(4-hydroxybenzyl)-3-methylisoindolin-1-one]: the pEC50 in test [1] (setting [3]) and in test [2] (setting [4]) was 5.30 to 6.30 throughout. Further, in test [1], the “Enzymatic Emax” value is “A (A>3)”. For the same compound, in test [2] (setting [4]), the maximal fold induction was above 1.5.
Regarding `Cn1ncc(Cl)c1CC1c2cc(Br)ccc2C(=O)N1Cc1ccc2[nH]c(=O)oc2c1` (stereo not drawn) [Compound 431, 6-((5-bromo-3-((4-chloro-1-methyl-1H-pyrazol-5-yl)methyl)-1-oxoisoindolin-2-yl)methyl)benzo[d]oxazol-2(3H)-one], the pEC50 in test [1] (setting [5]) is above 6.30. The “Enzymatic Emax” value in test [1] is listed as “A (A>3)”. Moreover, in test [2] (setting [6]), the pEC50 is above 6.30 and the maximal fold induction was above 1.5.
Turning to `N#Cc1ccnc(C#N)c1CC1c2ccccc2C(=O)N1CC1CC2(CNC(=O)O2)C1` (stereo not drawn) [Compound 446, 3-((3-oxo-2-((6-oxo-5-oxa-7-azaspiro[3.4]octan-2-yl)methyl)isoindolin-1-yl)methyl)pyridine-2,4-dicarbonitrile], the pEC50 in test [1] (setting [5]) and in test [2] (setting [6]) was above 6.30 each time. Besides, the “Enzymatic Emax” value in test [1] is recorded as “B (3≥B>2)”. For the same compound, the maximal fold induction in test [2] (setting [6]) is above 1.5.
As to `Cn1ncc(Cl)c1CC1c2cc(F)ccc2C(=O)N1CC1CC2(CNC(=O)O2)C1` (stereo not drawn) [Compound 486, 2-((3-((4-chloro-1-methyl-1H-pyrazol-5-yl)methyl)-5-fluoro-1-oxoisoindolin-2-yl)methyl)-5-oxa-7-azaspiro[3.4]octan-6-one], the negative logarithm of the EC50 (pEC50) in test [1] (setting [5]) was 5.30 to 6.30. Besides, the “Enzymatic Emax” value in test [1] is recorded as “B (3≥B>2)”. Besides, in test [2] (setting [6]), the negative-log EC50 (pEC50) was above 6.30 and the maximal fold induction is above 1.5.
Turning to `Cn1ncc(Cl)c1CC1c2ccccc2C(C)(C)N1Cc1ccc2[nH]nnc2c1` (stereo not drawn) [Compound 608, 5-((3-((4-chloro-1-methyl-IH-pyrazol-5-yl)methyl)-1,1-dimethylisoindolin-2-yl)methyl)-1H-benzo[d][1,2,3]triazole], the negative-log EC50 (pEC50) in test [1] (setting [5]) is above 6.30. In addition, the “Enzymatic Emax” value in test [1] is listed as “A (A>3)”. In addition, in test [2] (setting [6]), the negative-log EC50 (pEC50) was 5.30 to 6.30 and the maximal fold induction is above 1.5.
With `COc1ccc(CN2C(=O)c3ccc(OC(F)F)cc3C2Cc2c(Cl)cnn2C)cn1` (stereo not drawn) [Compound 619, 3-((4-chloro-1-methyl-1H-pyrazol-5-yl)methyl)-5-(difluoromethoxy)-2-((6-methoxypyridin-3-yl)methyl)isoindolin-1-one], the negative-log EC50 (pEC50) was at most 5.30 in test [1] (setting [5]) and 5.30 to 6.30 in test [2] (setting [6]). Moreover, the “Enzymatic Emax” value in test [1] is on record as “A (A>3)”. Further, the maximal fold induction in test [2] (setting [6]) was above 1.5.
Take `O=C1c2ccccc2C(Cc2n[nH]cc2Cl)N1Cc1ccc2[nH]nnc2c1` (stereo not drawn) [Compound 388, 2-((1H-benzo[d][1,2,3]triazol-5-yl)methyl)-3-((4-chloro-1H-pyrazol-3-yl)methyl)isoindolin-1-one]: the negative logarithm of the EC50 (pEC50) in test [1] (setting [5]) was above 6.30. Also, the “Enzymatic Emax” value in test [1] was “B (3≥B>2)”. Further, in test [2] (setting [6]), the pEC50 is 5.30 to 6.30 and the maximal fold induction was above 1.5.
Regarding `O=C1c2cc(Br)ccc2CN1Cc1ccc(O)cc1` [Compound 19, 6-bromo-2-(4-hydroxybenzyl) isoindolin-1-one], the pEC50 in test [1] (setting [3]) was at most 5.30. The “Enzymatic Emax” value in test [1] is given as “A (A>3)”. Moreover, in test [2] (setting [4]), the pEC50 was 5.30 to 6.30 and the maximal fold induction lay in the range of 1.2 to 1.5.

As a reminder, the pEC50 is −log10 of the EC50, conventionally taken in molar units.

These data come from US20260078130A1, “NAMPT MODULATORS, PREPARATIONS, AND USES THEREOF” (SIRONAX LTD., priority 2022, published 2026).
